“And” between values parts separate entries of the source, which are not always exact repeats. Identical values can stand only once.
How the values were obtained:
Plasma stability = type: in vitro ADME; conditions: human plasma
Method: Stock solutions of compounds in DMSO were used to spike pooled human plasma. Samples were transferred in duplicate to 6 different wells of a 96-deep well plate. An aliquot of each sample was immediately quenched with ice cold acetonitrile containing the internal standard carbamazepine (0.1 μM), after which the plate was incubated in a water bath (37°C for 1 h). Aliquots of samples were removed at 5, 15, 40, 60, and 180 min and quenched with ice cold acetonitrile. After samples of the final time point were precipitated, the supernatant was transferred to a round bottom 96-well plate for analysis by LC-MS/MS using a reverse phase Gemini NX-C18 column (5 μM, 2.1 mm × 50 mm) with a Shimadzu HPLC coupled with an AB Sciex 3200 Q TRAP MS). The peak area ratios were used to calculate the amount of parent compound remaining and t1/2 in plasma, using the following equations.
% Parent remaining % Parent= Normalised peak area of sample at timepoint/Normalised peak area of sample at t=0 x 100
Predicted t1/2 t1/2= −0.693/λ Where λ is the slope of the Ln % parent remaining vs. time curve.

[1] = Metabolic stability in human liver microsomes; type: in vitro ADME
Method: (§1) A 5-point metabolic stability assay in human and mouse liver microsomes were performed in duplicate in 96-well plates. Stock solution of RMB005, −059 and 060 prepared in DMSO were individually incubated at 37°C in mouse and pooled human liver microsomes (0.4 mg/mL). An aliquot was removed at 0 min and quenched with ice cold acetonitrile containing the internal standard carbamazepine (0.1 μM). The cofactor NADPH was added, and the reactions were subsequently stopped at time points 5, 10, 30, and 60 min by removal of an aliquot and quenching with ice cold acetonitrile containing the internal standard. The supernatant of all samples were analysed via LC-MS/MS analysis (reverse phase Gemini NX-C18 column and Shimadzu HPLC and AB Sciex 3200 Q TRAP MS). Calculation of in vitro t1/2, intrinsic clearance rate (CLint) and predicted in vivo clearance (CLH) was carried out using the following equations ([Obach 1999]). CLintClint= 0.693/t1/2(min) ×Volume of incubation (μL)/microsomal protein (μg) Where t1/2 is calculated in minutes.
(§2) Predicted in vivo CLH CLH=Q × fu(plasma)×CLint/fu(mic)/Q+ fu(plasma)× CLint/fu(mic) Where Q is the hepatic blood flow of mouse (90 mL/min/kg) or human (20.7 mL/min/kg). Fu(plasma) is the unbound drug fraction in the plasma and fu(mic) is the unbound fraction in the microsomes.
(§3) The equation below was used in the case of RMB059 and -060, where protein-binding data were not available. CLH=Q × CLint/Q+ CLint

[2] = In vivo pharmacokinetics, oral administration; parameters: species or system C57BL/6 mice; conditions: mice
Method: Healthy C57BL/6 mice each weighing approximately 25 g were maintained at the University of Cape Town animal facility. Mice were housed in 27 × 21 × 28 cm cages (n = 3) under controlled environmental conditions at 22 ± 2°C, humidity of 55 ± 15% and a 12-hour light/dark cycle. Food and water were available ad libitum. Mice were acclimatised to the experimental environment for 4–5 days prior to initiating the experiments. RMB005, −059 and −060 were prepared in an aqueous solution of HPMC containing 0.2% Tween 80. The weighed compound was sonicated and vortexed to obtain a homogenous suspension. Oral dosing of 20 mg/kg was achieved via oral gavage. The total volume per administration was 200 μL. Blood samples were collected post-dose in lithium heparin microvials via tail bleeding at predetermined intervals at 0.5, 1, 3, 5, 8, 10, and 24 h. Samples were gently vortexed and stored at −80°C until analysis. A quantitative LC-MS/MS assay was used to determine whole-blood concentrations of RMB005, −059 and −060. Whole blood samples (20 μL) were treated with 100 μL ice cold acetonitrile containing the compound RMB073 used previously for determination of whole blood concentrations in analysis of TB-active compounds, as internal standard (200 ng/ml) ([Tanner et al., 2019]). The mixture was vortexed vigorously for 1 min, and 5 µL of the supernatant were injected onto the analytical column following centrifugation (5,590 g for 5 min). Gradient elution was carried out using a Gemini NX-C18 analytical column (5 μm, 2.1 mm × 50 mm). The aqueous mobile phase consisted of 5 mm ammonium acetate with 0.1% acetic acid in deionised water, while the organic phase consisted of 0.1% acetic acid in acetonitrile. A Shimadzu HPLC and reverse phase Gemini NX-C18 column coupled to an AB Sciex 3200 Q TRAP MS was operated at unit resolution in the multiple reaction monitoring (MRM) mode. […] The calibration standards ranged from 2 ng/mL to 3,000 ng/mL for RMB005, and 2 ng/mL to 4,000 ng/mL for RMB059, −060 and DQ. Drug concentration versus time plots for each compound were used to determine maximal drug concentration C max, time T max to reach C max, elimination half-life t 1/2 and the area under the concentration-time curve from time zero to infinity, AUC0-inf. From these values the following PK parameters—clearance CL, volume of distribution (Vd) and oral bioavailability (BA) were determined using the non-compartmental analysis Microsoft Excel Add-In PKSolver ([Zhang et al., 2010]).

[3] = tested on: multidrug resistant Pf K1; parameters: method as in Beteck et al., 2018; conditions: ref Beteck et al., 2018; read-out: IC50 against multidrug resistant Pf K1; cited from earlier work
[4] = Lipophilicity, 1-octanol/phosphate buffer pH 7.4 (LogD7.4); type: physicochemical
Method: Stock solutions ([…]) of compounds were diluted to 100 μM in 96-well deep-well plate containing 1-octanol and phosphate buffer at pH 7.4. The plate was agitated on an orbital shaker at 750 rpm for 2 h. The organic and buffer layers of each well were transferred separately to a new analysis plate. The samples were analysed with the HPLC-diode array detection as described for kinetic solubility. Samples from both layers were analysed to determine LogD7.4 values.

[5] = Metabolic stability in mouse liver microsomes; type: in vitro ADME
Method: as §1, §2, §3

With `CCCCCCCCCCOc1cc2c(=O)c(C(=O)NCCOCCO)c[nH]c2cc1OCC` [RMB005] the “Plasma stability (in words)” value (Plasma stability) was “good plasma stability”, the “Plasma stability (in words)” value (Plasma stability; listed as RMB-005) was “relatively stable” and the half-life (Plasma stability; pooled plasma, 37°C) was > 2.5 h. The CLint scaled ([1]; human, pooled liver microsomes, calculated from t1/2 in HLM, read-out: In vitro CLint HLM) was 4 mL/min/kg, the half-life ([1]; pooled liver microsomes, human liver microsomes, NADPH, read-out: Degradation half-life HLM) was > 2.5 h and the “Estimated in vivo CLH HLM” value ([1]; protein binding data included) was 12.6 mL/min/kg. For the same compound, the Tmax ([2]; C57BL/6, mouse, whole blood, po, 20 mg/kg, po 20 mg/kg, dosed compound measured) was ~0.7 h, the Cmax ([2]; C57BL/6, mouse, po 20 mg/kg, whole blood, dosed compound measured, read-out: Cmax) was 490 ± 20 nM and the BA ([2]; po 20 mg/kg vs iv, 20 mg/kg) was 4% and 4 ± 0.3%. For the same compound, the “AUC0-∞” value ([2]; po 20 mg/kg, whole blood, dosed compound measured, 20 mg/kg) was 59 µmol·min/L and 59 ± 2 µmol·min/L, the IC50 [3] was 64.8 nM and the logD at 2 h [4] was 3.2. The half-life ([5]; mouse liver microsomes, NADPH, read-out: Degradation half-life MLM) was 1.22 h, the CLint scaled ([5]; mouse, liver microsomes, calculated from t1/2 in MLM, read-out: In vitro CLint MLM) was 104 mL/min/kg and the “Estimated in vivo CLH MLM” value ([5]; protein binding data included) was 81.2 mL/min/kg.

Source: publication PMC9450014, “The evaluation of ADME and pharmacokinetic properties of decoquinate derivatives for the treatment of malaria” (Frontiers in Pharmacology, 2022)
